Data on 28 compounds can be found in PubChem BioAssay AID1259408 (Genetic Toxicology Data Bank (GENE-TOX), 2018).

SMILES strings stand for the structures. Activity calls are given as the source filed them. The rule behind the calls is not given here.

The series concerns GENE-TOX genotoxicity assays, various organisms and cells. Put plainly: GENE-TOX mutagenicity studies. Conditions: for call: Assay Type: In vivo carcinogenicity studies.
[1] abbreviates: Species/Cell Type: Human lymphocytes, Assay Type: Sister-chromatid exchange (SCE) in vitro, Assay Code: SCLT, Evaluation Type: Evaluation B (Post-1980).
Where [2] appears, read: Species/Cell Type: Human lymphocytes, Assay Type: Sister-chromatid exchange (SCE) in vivo, Assay Code: SCY+, Evaluation Type: Evaluation B (Post-1980).
Setting [3] is: Species/Cell Type: Human, Assay Type: Sister-chromatid exchange (SCE) in vitro, Assay Code: SC1T, Evaluation Type: Evaluation B (Post-1980).
The mark [4] stands for this setting: Species/Cell Type: Neurospora crassa, Assay Type: Forward gene mutation, Assay Code: NEF+, Evaluation Type: Evaluation A (Pre-1980).
Setting [5] is: Species/Cell Type: Nonhuman, Assay Code: CCG+L, Evaluation Type: Evaluation A (Pre-1980).
Setting [6] is: Species/Cell Type: Salmonella typhimurium (one or more of the five standard strains: TA98, TA100, TA1535, TA1537, and TA1538), Assay Type: Histidine reverse gene mutation, Ames assay, Assay Code: SAL+, Evaluation Type: Evaluation A (Pre-1980).
Where [7] appears, read: Species/Cell Type: Chinese hamster lung (V79) cells, Assay Type: Forward gene mutation at the HPRT or ouabain locus, Assay Code: V79+, Evaluation Type: Evaluation A (Pre-1980).
[8] abbreviates: Species/Cell Type: Fischer rat embryo (RLV/1706) cells, Assay Type: Cell transformation, viral enhanced, Assay Code: CTR+, Evaluation Type: Evaluation A (Pre-1980).
Setting [9] is: Species/Cell Type: Saccharomyces cerevisiae, Assay Type: Mitotic recombination or gene conversion, Assay Code: YEC+, Evaluation Type: Evaluation A (Pre-1980).
Setting [10] is: Species/Cell Type: Saccharomyces cerevisiae, Assay Type: Mitotic recombination or gene conversion, Assay Code: YEH+, Evaluation Type: Evaluation A (Pre-1980).
Where [11] appears, read: Species/Cell Type: Nonhuman, Assay Type: Sister-chromatid exchange (SCE) in vitro, Assay Code: SC2+, Evaluation Type: Evaluation B (Post-1980).
The mark [12] stands for this setting: Species/Cell Type: Salmonella typhimurium (one or more of the five standard strains: TA98, TA100, TA1535, TA1537, and TA1538), Assay Type: Histidine reverse gene mutation, Ames assay, Assay Code: SALT, Evaluation Type: Evaluation A (Pre-1980).
The mark [13] stands for this setting: Species/Cell Type: Chinese hamster ovary (CHO) cells, Assay Type: Forward gene mutation at the HPRT locus, Assay Code: CHO+, Evaluation Type: Evaluation B (Post-1980).
[14] abbreviates: Species/Cell Type: Drosophila melanogaster, Assay Type: Sex-linked recessive lethal gene mutation, Assay Code: SRL+, Evaluation Type: Evaluation A (Pre-1980).
Where [15] appears, read: Species/Cell Type: Nonhuman, Assay Type: Sister-chromatid exchange (SCE) in vitro, Assay Code: SC2+D, Dose Response: With dose response, Evaluation Type: Evaluation B (Post-1980).
Where [16] appears, read: Species/Cell Type: Drosophila melanogaster, Assay Type: Sex-linked recessive lethal gene mutation, Assay Code: SRLT, Evaluation Type: Evaluation A (Pre-1980).
[17] abbreviates: Species/Cell Type: Mammalian polychromatic erythrocytes, Assay Type: Micronucleus test, chromosome aberrations, Assay Code: MNTT, Evaluation Type: Evaluation B (Post-1980).
Where [18] appears, read: Species/Cell Type: Nonhuman, Assay Code: CCG+, Evaluation Type: Evaluation A (Pre-1980).
[19] abbreviates: Species/Cell Type: Escherichia coli polA (W3119 vs P3478), Assay Type: Rec-assay, DNA effects (bacterial DNA repair), Assay Code: RE1T, Evaluation Type: Evaluation A (Pre-1980).
Where [20] appears, read: Species/Cell Type: Neurospora crassa, Assay Type: Reverse gene mutation, Assay Code: NER+, Evaluation Type: Evaluation A (Pre-1980).

In the case of `Cn1cnc([N+](=O)[O-])c1Sc1ncnc2nc[nH]c12`, the mutagenic call is, setting by setting: (Species/Cell Type: Drosophila melanogaster, Assay Type: Aneuploidy, partial sex chromosome loss, chromosome aberrations, Assay Code: DAP+M, Evaluation Type: Evaluation A (Pre-1980)) “active; positive”; (Species/Cell Type: Drosophila melanogaster, Assay Type: Aneuploidy, sex chromosome gain, chromosome aberrations, Assay Code: DAG+M, Evaluation Type: Evaluation A (Pre-1980)) “active; positive”; (Species/Cell Type: Drosophila melanogaster, Assay Type: Aneuploidy, whole sex chromosome loss, chromosome aberrations, Assay Code: DACT, Evaluation Type: Evaluation A (Pre-1980)) “no conclusion”; under setting [1], “no conclusion”; under setting [2], “active; positive”; under setting [3], “no conclusion”. For the same compound, the mutagenic call reads like this: (Species/Cell Type: Mammalian polychromatic erythrocytes, Assay Type: Micronucleus test, chromosome aberrations, Assay Code: MNT+, Evaluation Type: Evaluation A (Pre-1980)) “active; positive”; (Species/Cell Type: Mouse, Sex: Male, Assay Type: Sperm morphology, Assay Code: SPI+, Evaluation Type: Evaluation A (Pre-1980)) “active; positive”; (Species/Cell Type: Neurospora crassa, Assay Type: Forward and reverse gene mutation, lethal mutation, host-mediated assay, Assay Code: HMD+, Evaluation Type: Evaluation A (Pre-1980)) “active; positive”; under setting [4], “active; positive”; (Species/Cell Type: Nonhuman, Assay Type: Sister-chromatid exchange (SCE) in vivo, Assay Code: SC3-, Evaluation Type: Evaluation B (Post-1980)) “inactive; negative”; (Species/Cell Type: Rodents, Sex: Male, Assay Type: Dominant lethal test, Assay Code: DLTT, Evaluation Type: Evaluation A (Pre-1980)) “no conclusion”. The mutagenic call under setting [6] was “active; positive”. Moreover, under setting [5], the call is “active; positive”.

In the case of `C(CCC1CO1)CC1CO1` (centres undefined), the mutagenic call was “active; positive” under setting [4] and “active; positive” under setting [6].

With `CN(N=O)C(=O)NC1O[C@H](CO)[C@@H](O)[C@H](O)[C@H]1O` (some centres undefined), the mutagenic call under setting [7] is “active; positive”.

For the compound `ClC(Cl)=C(Cl)Cl`, the mutagenic call is “active; positive” under setting [8]; “active; positive” under setting [9]; “active; positive” under setting [10]; “active; positive” (Species/Cell Type: Saccharomyces cerevisiae, Assay Type: Reverse gene mutation, Assay Code: YER+, Evaluation Type: Evaluation A (Pre-1980)); “inactive; negative” (Species/Cell Type: Syrian hamster embryo (SA7/SHE) cells, Assay Type: Cell transformation, viral enhanced, Assay Code: CT7-, Evaluation Type: Evaluation A (Pre-1980)). Also, under setting [5], the call was “active; positive”.

In the case of `CCCCOc1ccc(CC(=O)NO)cc1`, the mutagenic call was “no conclusion” under setting [1], “no conclusion” under setting [3], “active; positive” under setting [11] and “no conclusion” under setting [12].

Consider `CC(=O)Nc1ccc([C@@H]2O[C@@H]2c2ccccc2)cc1`, for which, under setting [12], the mutagenic call is on record as “no conclusion”.

On to `COc1c(Cl)ccc2oc3cc4c(c(OC)c3c(=O)c12)[C@@H]1C=CO[C@@H]1O4`, for which, where the note is “Species/Cell Type: Salmonella typhimurium (one or more of the five standard strains: TA98, TA100, TA1535, TA1537, and TA1538), Assay Type: Histidine reverse gene mutation, Ames assay, Assay Code: SAL+*, Activation: With metabolic activation, Evaluation Type: Evaluation A (Pre-1980)”, the mutagenic call is “active; positive”.

As for `CCN(CCCl)CCCNc1c2ccccc2nc2c1ccc1cccnc12`, the mutagenic call under setting [13] is “active; positive”.

Consider `C=C(C)CC(C)(C)C`, for which the mutagenic call under setting [12] is listed as “no conclusion”.

Take `OC(CCl)OC(O)CCl` (centres undefined): the mutagenic call under setting [6] is “active; positive”.

As for `CC(C)[C@@](O)(C(=O)OCC1=CCN2CCC[C@@H]12)[C@@H](C)O`, the mutagenic call (Species/Cell Type: Allium cepa, Assay Type: Chromosome aberrations, Assay Code: ALC+, Evaluation Type: Evaluation A (Pre-1980)) was “active; positive” and the mutagenic call under setting [14] was “active; positive”.

Take `N[C@@H](CCC(=O)N[C@@H](CS)C(=O)NCC(=O)O)C(=O)O`: the mutagenic call by setting is: under setting [1], “no conclusion”; under setting [3], “no conclusion”; under setting [15], “active; positive”.

As to `c1ccc(Nc2ccccc2)cc1`, under “Species/Cell Type: Syrian hamster embryo (SA7/SHE) cells, Assay Type: Cell transformation, viral enhanced, Assay Code: CT7+, Evaluation Type: Evaluation A (Pre-1980)”, the mutagenic call is “active; positive”.

In the case of `CC(C)C[C@H](NC(=O)[C@@H](O)[C@H](N)Cc1ccccc1)C(=O)O`, the mutagenic call under setting [3] is recorded as “no conclusion”.

`O=S1(=O)CC=CC1`: under “Species/Cell Type: Nonhuman, Assay Code: CCG-, Evaluation Type: Evaluation A (Pre-1980)”, the call was “inactive; negative”.

As for `CC(=O)C=O`, under setting [15], the mutagenic call was “active; positive”.

For the compound `N`, under setting [16], the mutagenic call is “no conclusion”.

Turning to `Oc1c(Cl)cc(Cl)c(Cl)c1Cc1c(O)c(Cl)cc(Cl)c1Cl`, the mutagenic call under setting [17] is reported as “no conclusion”.

For `Cc1ccccc1N`, the mutagenic call runs as follows: (Species/Cell Type: Escherichia coli polA (W3119 vs P3478), Assay Type: Rec-assay, DNA effects (bacterial DNA repair), Assay Code: RE1+, Evaluation Type: Evaluation A (Pre-1980)) “active; positive”; under setting [8], “active; positive”; (Species/Cell Type: Mammalian polychromatic erythrocytes, Assay Type: Micronucleus test, chromosome aberrations, Assay Code: MNTT, Evaluation Type: Evaluation A (Pre-1980)) “no conclusion”; (Species/Cell Type: Mouse, Sex: Male, Assay Type: Sperm morphology, Assay Code: SPI-, Evaluation Type: Evaluation A (Pre-1980)) “inactive; negative”; under setting [15], “active; positive”; (Species/Cell Type: Nonhuman, Assay Type: Sister-chromatid exchange (SCE) in vivo, Assay Code: SC3+, Evaluation Type: Evaluation B (Post-1980)) “active; positive”. Also, the mutagenic call by setting is: (Species/Cell Type: Saccharomyces cerevisiae, Assay Type: Mitotic recombination or gene conversion, Assay Code: YEH-, Evaluation Type: Evaluation A (Pre-1980)) “inactive; negative”; under setting [12], “no conclusion”. Under setting [18], the call is “active; positive”.

For `OC[P+](CO)(CO)CO`, the mutagenic call under setting [17] is on record as “no conclusion”.

Regarding `COc1ccc2c(c1)OC(C)(C)[C@@H](c1ccccc1)[C@@H]2c1ccc(OCCN2CCCC2)cc1`, the mutagenic call (Species/Cell Type: Human, Sex: Male, Assay Type: Sperm morphology, Assay Code: SPHT, Evaluation Type: Evaluation A (Pre-1980)) is reported as “no conclusion”.

Regarding `CS(=O)(=O)O`, the mutagenic call under setting [16] is “no conclusion” and the mutagenic call under setting [19] is “no conclusion”.

Take `CCN(CC)CCOC(=O)c1ccc(N)cc1`: the mutagenic call under setting [19] is listed as “no conclusion” and the mutagenic call under setting [12] was “no conclusion”.

On to `CN(C)/N=N/c1nc[nH]c1C(N)=O`, for which the mutagenic call was “active; positive” under setting [13], “active; positive” under setting [14], “active; positive” under setting [2] and “active; positive” under setting [11]. Further, the call under setting [18] is “active; positive”.

Regarding `CON`, the mutagenic call was “no conclusion” under setting [16]; “no conclusion” (Species/Cell Type: Drosophila melanogaster, Sex: Male, Assay Type: Heritable translocation test, chromosome aberrations, Assay Code: DHTT, Evaluation Type: Evaluation A (Pre-1980)); “active; positive” under setting [20]; “active; positive” under setting [10].

As to `CC(C)C(O)(C(=O)OCC1=CCN2CC[C@H](O)[C@H]12)[C@H](C)O` (some centres undefined), the mutagenic call under setting [14] is “active; positive”.

On to `CCN(CC)CCCNC(=O)C(=O)N/N=C/c1ccc([N+](=O)[O-])o1`, for which the mutagenic call (Species/Cell Type: Escherichia coli WP2 UVRA, Assay Type: Tryptophan reverse gene mutation, Assay Code: WPU+D, Dose Response: With dose response, Evaluation Type: Evaluation A (Pre-1980)) is “active; positive”.

With `CC(C)NC(=O)/C=C/c1ccc([N+](=O)[O-])o1`, the mutagenic call is, setting by setting: under setting [7], “active; positive”; under setting [4], “active; positive”; under setting [20], “active; positive”; under setting [9], “active; positive”; under setting [6], “active; positive”.
